This assay deals with T1, amyloid-β 1-42 (Aβ1-42) (Homo sapiens, UniProt P05067).
T1 construct: gene APP; Aβ1-42 peptide
The assay can be described thus: Thioflavin T aggregation assay with purified Aβ[…]-42 peptide. The class given is biochemical.

Consider two compounds from publication PMC9953043, “Licochalcone E, a β-Amyloid Aggregation Inhibitor, Regulates Microglial M1/M2 Polarization via Inhibition of CTL1-Mediated Choline Uptake” (Biomolecules, 2023).

T1 sequence (P05067 672-713): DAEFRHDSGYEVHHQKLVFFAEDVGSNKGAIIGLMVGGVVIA

As for `COc1c(/C=C/C(=O)c2ccc(O)c(CC=C(C)C)c2)ccc(O)c1O` [Lico D, Licochalcone D], half-maximal inhibition (IC50) required 30.4 µM.

Turning to `C=C(C)[C@H](C)c1cc(/C=C/C(=O)c2ccc(O)cc2)c(OC)cc1O` [Lico E, Licochalcone E], the 50% inhibitory concentration (IC50) was found to be 104 µM.
